Source: ChEMBL document CHEMBL1201862, “PubChem BioAssay data set” (2004)
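Exposure lasted 48 hours, with cells grown in 96-well plates and compounds tested at five concentrations. The concentration for 50% growth inhibition is given as GI50.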 The source made the active and inactive calls. Cut-off read from the data, not from the text of the source: active = GI50 up to about 1.1 µM and inactive = higher.

Experiments:
Experiment in all cases: inhibition of tumour cell growth, NCI panel, 48 h
HOP-62 = test system: HOP-62
SF-539 = test system: SF-539
MOLT-4 = test system: MOLT-4
HOP-92 = test system: HOP-92
NCI-H23 = test system: NCI-H23
M19-MEL = test system: M19-MEL
NCI-H522 = test system: NCI-H522
KM12 = test system: KM12
HOP-18 = test system: HOP-18
A498 = test system: A498
U-251 = test system: U-251
SR = test system: SR
OVCAR-3 = test system: OVCAR-3
UO-31 = test system: UO-31
UACC-257 = test system: UACC-257
SF-295 = test system: SF-295
XF498 = test system: XF498
A549 = test system: A549
SK-OV-3 = test system: SK-OV-3
LOX IMVI = test system: LOX IMVI
SNB-19 = test system: SNB-19
EKVX = test system: EKVX
M14 = test system: M14
DMS-114 = test system: DMS-114
ACHN = test system: ACHN
HCC 2998 = test system: HCC 2998
SNB-78 = test system: SNB-78
Malme-3M = test system: Malme-3M
K562 = test system: K562
DMS-273 = test system: DMS-273
OVCAR-8 = test system: OVCAR-8
SF-268 = test system: SF-268
786-0 = test system: 786-0
IGROV-1 = test system: IGROV-1
COLO 205 = test system: COLO 205
CAKI-1 = test system: CAKI-1
SN12C = test system: SN12C
SK-MEL-5 = test system: SK-MEL-5
DLD-1 = test system: DLD-1
CCRF-CEM = test system: CCRF-CEM
HT-29 = test system: HT-29
OVCAR-5 = test system: OVCAR-5
NCI-H226 = test system: NCI-H226
RXF 631 = test system: RXF 631
SW-620 = test system: SW-620
TK-10 = test system: TK-10
NCI-H460 = test system: NCI-H460
OVCAR-4 = test system: OVCAR-4
LXFL 529 = test system: LXFL 529
SK-MEL-28 = test system: SK-MEL-28
SK-MEL-2 = test system: SK-MEL-2
RPMI-8226 = test system: RPMI-8226
UACC-62 = test system: UACC-62
HCT-116 = test system: HCT-116
SNB-75 = test system: SNB-75
KM-20L2 = test system: KM-20L2
RXF 393 = test system: RXF 393
HL-60 = test system: HL-60
HCT-15 = test system: HCT-15

Question: What does the source list for `Cn1cnc([N+](=O)[O-])c1Sc1nccc(O)n1`?
Answer: GI50 (HOP-62): > 100 µM (inactive); GI50 (SF-539): > 100 µM (inactive); GI50 (MOLT-4): > 100 µM (inactive); GI50 (HOP-92): > 100 µM (inactive); GI50 (NCI-H23): > 100 µM (inactive); GI50 (M19-MEL): > 100 µM (inactive); GI50 (NCI-H522): > 100 µM (inactive); GI50 (KM12): > 100 µM (inactive); GI50 (HOP-18): > 100 µM (inactive); GI50 (A498): > 100 µM (inactive); GI50 (U-251): > 100 µM (inactive); GI50 (SR): > 100 µM (inactive); GI50 (OVCAR-3): > 100 µM (inactive); GI50 (UO-31): > 100 µM (inactive); GI50 (UACC-257): > 100 µM (inactive); GI50 (SF-295): > 100 µM (inactive); GI50 (XF498): > 100 µM (inactive); GI50 (A549): > 100 µM (inactive); GI50 (SK-OV-3): > 100 µM (inactive); GI50 (LOX IMVI): > 100 µM (inactive); GI50 (SNB-19): > 100 µM (inactive); GI50 (EKVX): > 100 µM (inactive); GI50 (M14): > 100 µM (inactive); GI50 (DMS-114): > 100 µM (inactive); GI50 (ACHN): > 100 µM (inactive); GI50 (HCC 2998): > 100 µM (inactive); GI50 (SNB-78): > 100 µM (inactive); GI50 (Malme-3M): > 100 µM (inactive); GI50 (K562): > 100 µM (inactive); GI50 (DMS-273): > 100 µM (inactive); GI50 (OVCAR-8): > 100 µM (inactive); GI50 (SF-268): > 100 µM (inactive); GI50 (786-0): > 100 µM (inactive); GI50 (IGROV-1): > 100 µM (inactive); GI50 (COLO 205): > 100 µM (inactive); GI50 (CAKI-1): > 100 µM (inactive); GI50 (SN12C): > 100 µM (inactive); GI50 (SK-MEL-5): > 100 µM (inactive); GI50 (DLD-1): > 100 µM (inactive); GI50 (CCRF-CEM): > 100 µM (inactive); GI50 (HT-29): > 100 µM (inactive); GI50 (OVCAR-5): > 100 µM (inactive); GI50 (NCI-H226): > 100 µM (inactive); GI50 (RXF 631): > 100 µM (inactive); GI50 (SW-620): > 100 µM (inactive); GI50 (TK-10): > 100 µM (inactive); GI50 (NCI-H460): > 100 µM (inactive); GI50 (OVCAR-4): > 100 µM (inactive); GI50 (LXFL 529): > 100 µM (inactive); GI50 (SK-MEL-28): > 100 µM (inactive); GI50 (SK-MEL-2): > 100 µM (inactive); GI50 (RPMI-8226): > 100 µM (inactive); GI50 (UACC-62): > 100 µM (inactive); GI50 (HCT-116): > 100 µM (inactive); GI50 (SNB-75): > 100 µM (inactive)

Question: With `CCc1cc(CCC(=O)Nc2c(C)cccc2C)n[nH]1` as the molecule, how does the GI50 (HOP-62) read?
Answer: > 100 µM (inactive)

Question: What about the GI50 (SF-539) of the same molecule?
Answer: > 100 µM (inactive)

Question: What about the GI50 (MOLT-4) of the same molecule?
Answer: > 100 µM (inactive)

Question: And the GI50 (HOP-92)?
Answer: > 100 µM (inactive)

Question: And the GI50 (NCI-H23)?
Answer: > 100 µM (inactive)

Question: What about the GI50 (M19-MEL) of the same molecule?
Answer: > 100 µM (inactive)

Question: What about the GI50 (NCI-H522) of the same molecule?
Answer: > 100 µM (inactive)

Question: What about the GI50 (KM12) of the same molecule?
Answer: > 100 µM (inactive)

Question: And the GI50 (HOP-18)?
Answer: > 100 µM (inactive)

Question: What about the GI50 (A498) of the same molecule?
Answer: > 100 µM (inactive)

Question: And the GI50 (U-251)?
Answer: > 100 µM (inactive)

Question: What about the GI50 (SR) of the same molecule?
Answer: > 100 µM (inactive)

Question: What about the GI50 (OVCAR-3) of the same molecule?
Answer: > 100 µM (inactive)

Question: And the GI50 (UO-31)?
Answer: > 100 µM (inactive)

Question: And the GI50 (UACC-257)?
Answer: > 100 µM (inactive)

Question: What about the GI50 (SF-295) of the same molecule?
Answer: > 100 µM (inactive)

Question: What about the GI50 (XF498) of the same molecule?
Answer: > 100 µM (inactive)

Question: What about the GI50 (A549) of the same molecule?
Answer: > 100 µM (inactive)

Question: And the GI50 (SK-OV-3)?
Answer: > 100 µM (inactive)

Question: And the GI50 (SNB-19)?
Answer: > 100 µM (inactive)

Question: And the GI50 (EKVX)?
Answer: > 100 µM (inactive)

Question: And the GI50 (M14)?
Answer: > 100 µM (inactive)

Question: What about the GI50 (KM-20L2) of the same molecule?
Answer: > 100 µM (inactive)

Question: And the GI50 (ACHN)?
Answer: > 100 µM (inactive)

Question: What about the GI50 (HCC 2998) of the same molecule?
Answer: > 100 µM (inactive)

Question: What about the GI50 (SNB-78) of the same molecule?
Answer: > 100 µM (inactive)

Question: And the GI50 (Malme-3M)?
Answer: > 100 µM (inactive)

Question: What about the GI50 (K562) of the same molecule?
Answer: > 100 µM (inactive)

Question: And the GI50 (DMS-273)?
Answer: > 100 µM (inactive)

Question: And the GI50 (OVCAR-8)?
Answer: > 100 µM (inactive)

Question: What about the GI50 (SF-268) of the same molecule?
Answer: > 100 µM (inactive)

Question: And the GI50 (786-0)?
Answer: > 100 µM (inactive)

Question: And the GI50 (IGROV-1)?
Answer: > 100 µM (inactive)

Question: What about the GI50 (COLO 205) of the same molecule?
Answer: > 100 µM (inactive)

Question: And the GI50 (CAKI-1)?
Answer: > 100 µM (inactive)

Question: And the GI50 (RXF 393)?
Answer: > 100 µM (inactive)

Question: And the GI50 (SN12C)?
Answer: > 100 µM (inactive)

Question: And the GI50 (SK-MEL-5)?
Answer: > 100 µM (inactive)

Question: What about the GI50 (DLD-1) of the same molecule?
Answer: > 100 µM (inactive)

Question: What about the GI50 (CCRF-CEM) of the same molecule?
Answer: > 100 µM (inactive)

Question: What about the GI50 (HT-29) of the same molecule?
Answer: > 100 µM (inactive)

Question: What about the GI50 (OVCAR-5) of the same molecule?
Answer: > 100 µM (inactive)

Question: What about the GI50 (NCI-H226) of the same molecule?
Answer: > 100 µM (inactive)

Question: And the GI50 (RXF 631)?
Answer: > 100 µM (inactive)

Question: What about the GI50 (SW-620) of the same molecule?
Answer: > 100 µM (inactive)

Question: What about the GI50 (TK-10) of the same molecule?
Answer: > 100 µM (inactive)

Question: And the GI50 (NCI-H460)?
Answer: > 100 µM (inactive)

Question: And the GI50 (HL-60)?
Answer: > 100 µM (inactive)

Question: What about the GI50 (OVCAR-4) of the same molecule?
Answer: > 100 µM (inactive)

Question: What about the GI50 (LXFL 529) of the same molecule?
Answer: > 100 µM (inactive)

Question: And the GI50 (SK-MEL-28)?
Answer: > 100 µM (inactive)

Question: And the GI50 (SK-MEL-2)?
Answer: > 100 µM (inactive)

Question: And the GI50 (RPMI-8226)?
Answer: > 100 µM (inactive)

Question: And the GI50 (UACC-62)?
Answer: > 100 µM (inactive)

Question: And the GI50 (HCT-116)?
Answer: > 100 µM (inactive)

Question: What about the GI50 (SNB-75) of the same molecule?
Answer: > 100 µM (inactive)

Question: What about the GI50 (HCT-15) of the same molecule?
Answer: > 100 µM
